Data published in patent US10882838B2, “Cannabinergic compounds and uses thereof” (Northeastern University, priority 2012, dated 2021).
Read-outs that look alike come from different tables or passages of the source.

Assays:
mCB2 receptor = mCB2 receptor (Mus musculus (Mouse), UniProt P47936); assay: mCB2 competition-equilibrium binding with [3H]CP-55,940, membranes of HEK293 cells expressing mCB2
Procedure: (§1) HEK293 cells expressing hCB1 or hCB2 or mCB2 receptor are used for membrane preparations according to Abadji et al. The resulting pellet is resuspended in 10 mM Tris-chloride, pH 7.4, with 5 mM MgCl2 and 2 mM EDTA (TME), rapidly frozen in liquid nitrogen and stored at −80° C. for no longer than two months. Protein content is assayed by using the Bio-Rad protein assay according to the manufacturer's protocol.
(§2) All the cannabinoids discussed in this invention are tested for their ability to bind to CB1 and CB2 receptors using membranes from rat brain or HEK293 cells expressing either mCB2 or hCB2, respectively via competition-equilibrium binding using [^3H]CP-55,940. Results are analyzed using nonlinear regression to determine ligand IC50 (Prism by GraphPad Software, Inc.), and Ki values are calculated from the IC50. IC50 and Ki values are determined from at least three independent experiments.

CB1 receptor = CB1 receptor (Rattus norvegicus (Rat), UniProt P20272); assay: rCB1 competition-equilibrium binding with [3H]CP-55,940, rat brain membranes
Procedure: Frozen rat brains (CB1 source) are obtained from Pel-Freeze Biologicals (Rogers, Ak.) and stored at −80° C. until use. Membranes are prepared according to the method described by Dodd et al. and used in our laboratory as reported.
as §2

hCB2 receptor = hCB2 receptor (Homo sapiens (Human), UniProt P34972); assay: hCB2 competition-equilibrium binding with [3H]CP-55,940, membranes of HEK293 cells expressing hCB2
Procedure: as §1, §2

[1] = HEK293 cells expressing mCB2, [3H]CP-55,940, read-out: mCB2 Ki
[2] = rat brain membranes, [3H]CP-55,940, read-out: rCB1 Ki
[3] = HEK293 cells expressing hCB2, [3H]CP-55,940, read-out: hCB2 Ki

SMILES	Ki (mCB2 receptor; [1])	Ki (CB1 receptor; [2])	Ki (hCB2 receptor; [3])	Ki (mCB2 receptor)	Ki (CB1 receptor)	Ki (hCB2 receptor)
CC1=CC[C@@H]2[C@@H](C1)c1c(O)cc(C(C)(C)C(=O)OCCBr)cc1OC2(C)C [Compound 1.36, 2-bromoethyl-2-((6aR,10aR)-6a,7,10,10a-tetrahydro-1-hydroxy-6,6,9-trimethyl-6H-benzo [c]chromen-3-yl)-2-methylpropanoate]	3.2 nM	2.9 nM	7.7 nM	–	–	–
CC1=CC[C@@H]2[C@@H](C1)c1c(O)cc(C(C)(C)CO)cc1OC2(C)C [Compound 1.32, (6aR,10 aR)-3-(1-hydroxy-2-methylpropan-2-yl)-6,6,9-trimethyl-6a,7,10,10a-tetrahydro-6H-benzo[c]chromen-1-ol]	–	447 nM	–	–	–	–
CCOC(=O)C(C)(C)c1cc(OC)c(-c2cccc(C#N)c2)c(OC)c1 [Compound 4.1, Ethyl 2-(3′-cyano-2,6-dimethoxybiphenyl-4-yl)-2-methylpropanoate]	> 1000 nM	> 1000 nM	> 1000 nM	–	–	–
CCOC(=O)C(C)(C)c1cc(OC)c(-c2cc(C)cc(C)c2)c(OC)c1 [Compound 4.3, Ethyl 2-(2,6-dimethoxy-3′,5′-dimethylbiphenyl-4-yl)-2-methylpropanoate]	1000 nM	1000 nM	1000 nM	–	–	–
CCCCOC(=O)Cc1cc(O)c2c(c1)OC(C)(C)[C@@H]1CCC(=O)C[C@@H]21 [Compound 3.2, Butyl-2-((6aR,10aR)-6a,7,8,9,10,10a-hexahydro-1-hydroxy-6,6-dimethyl-9-oxo-6H-benzo[c]chromen-3-yl)acetate]	1000 nM	1000 nM	1000 nM	–	–	–
CCCCCCC1(c2cc(O)c3c(c2)OC(C)(C)[C@@H]2CC=C(C)C[C@@H]32)CC(=O)O1 (stereo partly drawn) [Compound 1.23, 4-hexyl-4-((6aR,10aR)-1-hydroxy-6,6,9-trimethyl-6a,7,10,10a-tetrahydro-6H-benzo[c]chromen-3-yl)oxetan-2-one]	–	–	–	40.7 nM	15.9 nM	55.5 nM
CC1=CC[C@@H]2[C@@H](C1)c1c(O)cc(C(C)(C)C(=O)OCCCN=[N+]=[N-])cc1OC2(C)C [Compound 1.9, 3-azidopropyl-2-((6aR,10aR)-6a,7,10,10a-tetrahydro-1-hydroxy-6,6,9-trimethyl-6H-benzo[c]chromen-3-yl)-2-methylpropanoate]	0.7 nM	1 nM	0.8 nM	–	–	–
CC(C)(C(=O)O)c1cc(O)c2c(c1)OC(C)(C)[C@@H]1CCC(=O)C[C@@H]21 [Compound 3.3, 2-((6aR,10aR)-6a,7,8,9,10,10a-hexahydro-1-hydroxy-6,6-dimethyl-9-oxo-6H-benzo[c]chromen-3-yl)-2-methylpropanoic Acid]	> 10000 nM	> 10000 nM	> 10000 nM	–	–	–
CCOC(=O)C(C)(C)c1cc(O)c(-c2cc(C)cc(C)c2)c(OC)c1 [Compound 4.5, Ethyl 2-(2-hydroxy-6-methoxy-3′,5′-dimethylbiphenyl-4-yl)-2-methylpropanoate]	108 nM	1000 nM	375 nM	–	–	–
CC1=CC[C@@H]2[C@@H](C1)c1c(O)cc([C@H](C)C(=O)O)cc1OC2(C)C [Compound 1.15, (S)-2-((6aR,10aR)-1-hydroxy-6,6,9-trimethyl-6a,7,10,10a-tetrahydro-6H-benzo[c]chromen-3-yl)propanoic Acid]	> 10000 nM	> 10000 nM	> 10000 nM	–	–	–
CC1=CC[C@H]2[C@@H](C1)c1c(O)cc(C(C)(C)C(=O)O)cc1OC2(C)C [Compound 1.1, 2-((6aS,10aR)-6a,7,10,10a-tetrahydro-1-hydroxy-6,6,9-trimethyl-6H-benzo[c]chromen-3-yl)-2-methylpropanoic Acid]	–	–	–	> 10000 nM	> 10000 nM	> 10000 nM
CCOC(=O)C(C)(C)c1cc(O)c(-c2cccc(C#N)c2)c(O)c1 [Compound 4.2, Ethyl 2-(3′-cyano-2,6-dihydroxybiphenyl-4-yl)-2-methylpropanoate]	–	3660 nM	94.8 nM	–	–	–
CCCCOC(=O)C(C)(C)c1cc(O)c2c(c1)OC(C)(C)[C@@H]1CC[C@@H](CO)C[C@H]21 [Compound 3.9, Butyl 2-((6aR,9R,10aS)-1-hydroxy-9-(hydroxymethyl)-6,6-dimethyl-6a,7,8,9,10,10a-hexahydro-6H-benzo[c]chromen-3-yl)-2-methylpropanoate]	4.3 nM	2.4 nM	6.5 nM	–	–	–
CC1=CC[C@@H]2[C@@H](C1)c1c(O)cc(C(C)(C)C(=O)OCCCC#N)cc1OC2(C)C [Compound 1.8, 3-cyanopropyl-2-((6aR,10aR)-6a,7,10,10a-tetrahydro-1-hydroxy-6,6,9-trimethyl-6H-benzo[c]chromen-3-yl)-2-methylpropanoate]	0.7 nM	0.5 nM	1.4 nM	–	–	–
CCOC(=O)C(C)(C)c1cc(O)c(-c2cc(C)cc(C)c2)c(O)c1 [Compound 4.4, Ethyl 2-(2,6-dihydroxy-3′,5′-dimethylbiphenyl-4-yl)-2-methylpropanoate]	36 nM	941 nM	48.8 nM	–	–	–
CCCCOC(=O)C(C)(C)c1cc(O)c2c(c1)OC(C)(C)[C@@H]1CCC(=O)C[C@@H]21 [Compound 3.4, Butyl-2-((6aR,10aR)-6a,7,8,9,10,10a-hexahydro-1-hydroxy-6,6-dimethyl-9-oxo-6H-benzo[c]chromen-3-yl)-2-methylpropanoate]	7.2 nM	2.2 nM	6.2 nM	–	–	–
CCCSC(=O)C(C)(C)c1cc(O)c2c(c1)OC(C)(C)[C@@H]1CC=C(C)C[C@@H]21 [Compound 1.30, S-propyl-2-((6aR,10aR)-6a,7,10,10a-tetrahydro-1-hydroxy-6,6,9-trimethyl-6H-benzo[c]chromen-3-yl)-2-methylpropanethioate]	–	0.5 nM	0.7 nM	–	–	–
CC1=CC[C@@H]2[C@@H](C1)c1c(O)cc(C3(C(=O)OCCCCN=[N+]=[N-])CCC3)cc1OC2(C)C [Compound 1.21, 4-azidobutyl 1-((6aR,10aR)-1-hydroxy-6,6,9-trimethyl-6a,7,10,10a-tetrahydro-6H-benzo[c]chromen-3-yl)cyclo Butanecarboxylate]	1.9 nM	0.9 nM	2.7 nM	–	–	–
CC(C)(C(=O)O)c1cc(O)c2c(c1)OC(C)(C)[C@@H]1CC[C@@H](O)C[C@@H]21 [Compound 3.5, 2-((6aR,9R,10aR)-6a,7,8,9,10,10a-hexahydro-1,9-dihydroxy-6,6-dimethyl-6H-benzo[c]chromen-3-yl)-2-methylpropanoic Acid]	> 10000 nM	> 10000 nM	> 10000 nM	–	–	–
CC1=CC[C@@H]2[C@@H](C1)c1c(O)cc(C(C)C(=O)O)cc1OC2(C)C (stereo partly drawn) [Compound 1.11, 2-((6aR,10aR)-1-hydroxy-6,6,9-trimethyl-6a,7,10,10a-tetrahydro-6H-benzo[c]chromen-3-yl)propanoic acid]	> 10000 nM	> 10000 nM	> 10000 nM	–	–	–
CCCCCCC(O)(CC(=O)O)c1cc(O)c2c(c1)OC(C)(C)[C@@H]1CC=C(C)C[C@@H]21 (stereo partly drawn) [Compound 1.22, 3-hydroxy-3-((6aR,10aR)-1-hydroxy-6,6,9-trimethyl-6a,7,10,10a-tetrahydro-6H-benzo[c]chromen-3-yl)nonanoic Acid]	1000 nM	600 nM	1000 nM	–	–	–
CCOC(=O)C(C)(C)c1cc(O)c(-c2cc(Cl)cc(Cl)c2)c(O)c1 [Compound 4.8, Ethyl 2-(3′,5′-dichloro-2,6-dihydroxybiphenyl-4-yl)-2-methylpropanoate]	–	–	20.9 nM	–	–	–
CC1=CC[C@H]2[C@@H](C1)c1c(O)cc(C(C)(C)C(=O)OCCCCCBr)cc1OC2(C)C [Compound 1.5, 5-bromopentyl-2-((6aS,10aR)-6a,7,10,10a-tetrahydro-1-hydroxy-6,6,9-trimethyl-6H-benzo[c]chromen-3-yl)-2-methylpropanoate]	0.5 nM	1.2 nM	0.6 nM	–	–	–
CC1=CC[C@@H]2[C@@H](C1)c1c(O)cc(C(C)(C)C(=O)OCCCBr)cc1OC2(C)C [Compound 1.7, 3-bromopropyl-2-((6aR, 10aR)-6a, 7, 10, 10a-tetrahydro-1-hydroxy-6,6,9-trimethyl-6H-benzo[c]chromen-3-yl)-2-methylpropanoate]	1.1 nM	0.8 nM	0.6 nM	–	–	–
CCOC(=O)C(C)(C)c1cc(O)c(-c2cc(Cl)cc(Cl)c2)c(OC)c1 [Compound 4.7, ethyl 2-(3′,5′-dichloro-2-hydroxy-6-methoxybiphenyl-4-yl)-2-methylpropanoate]	–	1000 nM	700 nM	–	–	–
CCCCCCC(C)(C)c1cc(O)c2c(c1)OC(C)(C)[C@@H]1CCOC(=O)C[C@@H]21 [Compound 3.11, (5 aR,11bR)-11-hydroxy-6,6-dimethyl-9-(2-methyloctan-2-yl)-4,5,5a,6-tetrahydro-1H-oxepino[4,5-c]chromen-2(11bH)-one]	802 nM	99 nM	–	–	–	–
CCCCC(=O)OCC(C)(C)c1cc(O)c2c(c1)OC(C)(C)[C@@H]1CC=C(C)C[C@@H]21 [Compound 1.33, 2-((6aR, 10aR)-6a,7,10,10a-tetrahydro-1-hydroxy-6,6,9-trimethyl-6H-benzo[c]chromen-3-yl)-2-methyl propylpentanoate]	–	0.5 nM	1 nM	–	–	–
